# Measured values from patent publication US12310944B2 (priority 2019, dated 2025).
# Where two headings read alike, the source gives them in different places.
# Columns and labels:
# [1] = target: T1, eqBuChE (BuChE, E.C.3.1.1.8, selected from horse serum) (Equus caballus, UniProt P81908); assay: Cholinesterase inhibitory activity (DTNB/BTC), eqBuChE; format: biochemical
# T1 construct: BuChE (E.C.3.1.1.8, selected from horse serum); purchased Sigma; host or cells: horse serum
# Description: Determination of Cholinesterase Inhibitory Activity:
# Drugs and reagents: Test compounds, AChE (E.C.3.1.1.7, Type VI-S, selected from electric eel), BuChE (E.C.3.1.1.8, selected from horse serum), 5,5′-dithiobis(2-nitrobenzoic acid) (DTNB), acetylthiocholine (ATC) iodide and butyrylthiocholine (BTC) iodide were all purchased from Sigma; the positive control tacrine hydrochloride (9-amino-1,2,3,4-tetrahydroacridine hydrochloride hydrate) was purchased from BioTrend.
# (§1) Instrument: THERMO Varioskan Flash full-wavelength multifunctional microplate reader.
# (1) Formulation of buffer: 13.6 g of potassium dihydrogen phosphate was dissolved in 1 L of water, and pH was adjusted with potassium hydroxide to reach pH=8±0.1. The solution was stored at 4° C. for later use.
# (2) Formulation of 0.01 M DTNB solution: 0.396 g of DTNB and 0.15 g of sodium bicarbonate were dissolved in 100 mL of water to prepare a 0.01 M DTNB solution, which was stored at −30° C. for later use.
# (3) Formulation of 0.075 M ATC and BTC solutions: 0.217 g of ATC was dissolved in 10 mL of water to prepare a 0.075 M ATC solution, which was stored at −30° C. for later use; 0.237 g of BTC was dissolved in 10 mL of water to prepare a 0.075 M BTC solution, which was stored at −30° C. for later use.
# (4) Formulation of AChE and BuChE solutions: 5,000 units of AChE were dissolved in 1 mL of 1% gel solution, and then diluted to 100 mL with water to prepare a AChE solution with a concentration of 5 units/mL, which was stored at −30° C. for later use; 5,000 units of BuChE were dissolved in 1 mL of 1% gel solution, and then diluted to 100 mL with water to prepare a BuChE solution with a concentration of 5 units/mL, which was stored at −30° C. for later use.
# (5) Formulation of test substance solution: The test compound was dissolved in ethanol to obtain a solution with a concentration of 10^−3 M (ethanol would not affect the test results), and then diluted with water to prepare solutions with concentrations of […], 10^−5, 10^−6, 10^−7, 10^−8, 10^−9, and 10^−10 M, respectively.
# Before the start of the experiment, all the solutions as used were warmed to room temperature, and the AChE and BuChE solutions were diluted 1-fold with water to prepare an enzyme solution with a concentration of 2.5 units/mL. The background UV absorbance was measured with a blank buffer (3 mL) as a subtraction value. Firstly, 100 μL of test compound solution, 100 μL of DTNB solution, and 100 μL of enzyme solution were added to 3 mL of buffer. After adding 20 μL of ATC or BTC solution to trigger the reaction, the time was recorded immediately and the test solution was mixted quickly and uniformly at the same time. After 2 minutes, the UV absorbance was measured at a wavelength of […]. The blank control group was measured with an equal volume of water instead of the test substance solution. All tests were performed three times in parallel. The UV absorption value of the blank control group was taken as 100%, the absorbance (OD value) of the test compound at each concentration was recorded, and GraphPad Prism™ (GraphPad Software, San Diego, CA, USA) software was used to analyze the results in a non-linear regression analysis model to calculate the corresponding IC50 values, as shown in Table 1.
# hBuChE = hBuChE (Homo sapiens, UniProt P06276); assay: Cholinesterase inhibitory activity (DTNB/BTC), hBuChE; format: biochemical; conditions: mean ± SEM
# PC-12 neural cell line = assay: Toxicity test in PC-12 nerve cell (MTT); format: cell-based; conditions: PC-12 cells; for SR(%) cell survival rate, 20 μM: 20 μM compound for 24 h; for SR(%) cell survival rate, 50 μM: 50 μM compound for 24 h
# Description: Toxicity Test in PC-12 Nerve Cell:
# Drugs and reagents: Test compounds, DMEM medium (01-050-1A) purchased from Biological Industries, FBS fetal bovine serum (04-001-1A) purchased from Biological Industries, MTT thiazolyl blue reagent (KGT525500) purchased from KeyGEN BioTECH.
# as §1
# About 3×10^3 PC-12 cells were evenly mixed in 0.1 mL of DMEM medium containing 10% FBS, and plated on a 96-well bottom plate, and incubated overnight at 37° C. in an environment containing 5% CO2. The 20 μM and 50 μM compounds diluted in 0.1 mL of DMEM medium were treated on the cells for 24 hours. Then MTT reagent was added to the well plate, and the plate was incubated at 37° C. for 2 to 4 hours. The color reaction was measured at 492 nm using a spectrophotometer (Thermo, multiskan FC).
# [2] = eqBuChE, mean ± SEM, three parallel tests
# [3] = read-out: IC50 (nM) ± SEM eqBuChE
# T1 sequence (P81908 whole entry): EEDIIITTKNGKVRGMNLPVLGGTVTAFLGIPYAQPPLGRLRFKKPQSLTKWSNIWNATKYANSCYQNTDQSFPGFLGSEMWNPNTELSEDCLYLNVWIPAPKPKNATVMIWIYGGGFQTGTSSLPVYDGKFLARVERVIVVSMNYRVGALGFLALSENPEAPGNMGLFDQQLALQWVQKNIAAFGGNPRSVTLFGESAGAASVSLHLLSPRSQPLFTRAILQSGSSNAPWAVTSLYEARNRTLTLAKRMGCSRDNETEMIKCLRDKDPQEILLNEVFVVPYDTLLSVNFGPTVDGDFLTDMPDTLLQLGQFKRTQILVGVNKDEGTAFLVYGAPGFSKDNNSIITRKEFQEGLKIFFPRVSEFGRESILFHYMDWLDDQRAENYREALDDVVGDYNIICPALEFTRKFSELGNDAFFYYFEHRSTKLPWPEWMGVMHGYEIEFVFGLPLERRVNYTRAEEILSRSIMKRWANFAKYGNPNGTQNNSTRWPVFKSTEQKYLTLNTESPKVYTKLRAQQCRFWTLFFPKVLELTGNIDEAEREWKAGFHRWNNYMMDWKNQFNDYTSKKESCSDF
SMILES,"IC50 [1, 2]",IC50 (hBuChE),"SR(%) cell survival rate, 20 μM (PC-12 neural cell line)","SR(%) cell survival rate, 50 μM (PC-12 neural cell line)","IC50 [1, 3]"
"CCN(CC)Cc1ccccc1CNC(=O)c1cccc(NC(=O)c2cccs2)c1 [Compound 1, N-(3-((2-((diethylamino)methyl)benzyl)carbamoyl)phenyl)thiophene-2-carboxamide]",0.13 ± 0.01 nM,0.42 ± 0.07 nM,97.36%,84.34%,–
CCN(CC)Cc1ccccc1CNC(=O)c1cccc(NC(=O)c2ccc(OC)cc2)c1 [Compound 26],0.55 ± 0.09 nM,1.04 ± 0.52 nM,97.20%,82.25%,–
"CCN(CC)Cc1ccccc1CNC(=O)c1cccc(NC(=O)c2ccc(C)cc2)c1 [Compound 22, N-(2-((diethylamino)methyl)benzyl)-3-(4-methylbenzamido)benzamide]",–,1.54 ± 0.56 nM,93.35%,89.42%,0.98 ± 0.21 nM
CCN(CC)Cc1ccccc1CNC(=O)c1cccc(NC(=O)c2ccc([N+](=O)[O-])cc2)c1 [Compound 32],–,30.9 ± 3.26 nM,97.42%,84.65%,22.6 ± 0.98 nM
"CCN(CC)Cc1ccccc1CNC(=O)c1cccc(NC(=O)c2ccc(C=O)cc2)c1 [Compound 14, N-(2-((diethylamino)methyl)benzyl)-3-(4-formanilide)benzamide]",–,2.09 ± 0.99 nM,86.34%,81.34%,0.89 ± 0.63 nM
"CCN(CC)Cc1ccccc1CNC(=O)c1cccc(NC(=O)c2ccc(C)c(C)c2)c1 [Compound 23, N-(3-((2-((diethylamino)methyl)benzyl)carbamoyl)phenyl)-3,4-dimethylbenzamide]",–,1.53 ± 0.55 nM,85.05%,80.72%,0.8 ± 0.24 nM
"CCN(CC)Cc1ccccc1CNC(=O)c1cccc(NC(=O)c2ccccc2F)c1 [Compound 18, N-(3-((2-((diethylamino)methyl)benzyl)carbamoyl)phenyl)-2-fluorobenzamide]",–,17.4 ± 1.98 nM,80.26%,73.56%,3.5 ± 1.1 nM
"CCN(CC)Cc1ccccc1CNC(=O)c1cccc(NC(=O)c2ccccn2)c1 [Compound 7, N-(3-((2-((diethylamino)methyl)benzyl)carbamoyl)phenyl)-pyridineamide]",–,0.78 ± 0.63 nM,92.36%,75.46%,0.34 ± 0.02 nM
"CCN(CC)Cc1cccc(CNC(=O)c2cccc(NC(=O)c3cccs3)c2)c1 [Compound 37, N-(3-((3-((diethylamino)methyl)benzyl)carbamoyl)phenyl)thiophene-2-carboxamide]",–,32.9 ± 15.7 nM,92.05%,82.03%,12.6 ± 0.86 nM
"CCN(CC)Cc1ccccc1CNC(=O)c1cccc(NC(=O)c2ccc(Br)cc2)c1 [Compound 20, 3-(4-bromobenzamido)-N-(2-((diethylamino)methyl)benzyl)benzamide]",–,1.91 ± 0.59 nM,94.00%,85.21%,0.98 ± 0.62 nM
"CCN(CC)Cc1ccccc1CNC(=O)c1cccc(NC(=O)c2ccc[nH]2)c1 [Compound 5, N-(3-((2-((diethylamino)methyl)benzyl)carbamoyl)phenyl)-pyrrole-2-carboxamide]",–,2.99 ± 0.67 nM,97.53%,92.47%,0.87 ± 0.03 nM
"CCN(CC)Cc1ccc(CNC(=O)c2cccc(NC(=O)c3cccs3)c2)cc1 [Compound 38, N-(3-((4-((diethylamino)methyl)benzyl)carbamoyl)phenyl)thiophene-2-carboxamide]",–,75 ± 22.9 nM,93.67%,84.23%,24.7 ± 10.6 nM
